Where “and” joins values, the source holds several entries; their conditions need not be identical. Identical values can stand only once.
These compounds were tested on Human immunodeficiency virus 1 (assay: Antiviral activity against HIV1 in MT4 cells assessed as reduction of virus-induced cytopathicity by XTT assay).
Type: functional
With `COc1ccc(OC)c(CCNC(=S)Nc2ccc(Cl)cn2)c1` the pED50 was 1.3979. `COc1ccc(F)c(F)c1CC/N=C(\S)Nc1ccc(Br)cn1` was tested, and the pED50 was 2.1589. In the case of `Cc1ccccc1CCNC(=S)Nc1nccs1`, the pED50 is reported as 0.0227. `CCOc1ccc(F)c(CCNC(=S)Nc2ccc(Cl)cn2)c1Cl` gave a pED50 of 2.0969. With `COc1ccc(CCNC(=S)Nc2nccs2)cc1` the Log10ED50 was 0.7404. `CC(C)c1csc(NC(=S)NCCc2ccccc2)n1` showed a Log10ED50 of 0.1139. For `CCOc1cccc(F)c1CCNC(=S)Nc1ccc(Br)cn1`, the pED50 was 1.886 and 1.6989. `CN(C)c1ccc(F)c(CCNC(=S)Nc2ccc(Cl)cn2)c1F` was tested, and the pED50 was 1.3979. With `S=C(NCCc1cccc(Oc2ccccc2)c1)Nc1nccs1` the Log10ED50 was 0.4471. With `COc1ccc(OC)c(CCNC(=S)Nc2ccc(Cl)cn2)c1F` the pED50 was 2.6989. Compound `CCOc1cccc(F)c1CCNC(=S)Nc1nccs1` has a pED50 of 0.6989. `Fc1cccc(CCNC(=S)Nc2nccs2)c1` was tested, and the pED50 was 0.6021. With `N#Cc1csc(NC(=S)NCCc2ccccc2)n1` the pED50 was 0.6989. In the case of `CCOc1ccc(OC)c(CCNC(=S)Nc2ccc(Cl)cn2)c1F`, the pED50 is reported as 2.301. Work on `CCOc1ccc(F)c(F)c1CCNC(=S)Nc1ccc(Br)cn1` yielded a pED50 of 2.1549. In the case of `S=C(NCCc1ccccc1)Nc1ccc(Br)cn1`, the pED50 is reported as 1.301. `CCOc1ccc(F)c(CCNC(=S)Nc2ccc(I)cn2)c1Cl` gave a pED50 of 1.8239. For `CCOc1cccc(CCNC(=S)Nc2nccs2)c1`, the pED50 was 0.8239. For `CC(=O)NCc1ccc(F)c(CCNC(=S)Nc2ccc(Br)cn2)c1F`, the pED50 was 0.0457. In the case of `COc1ccccc1CCNC(=S)Nc1nccs1`, the pED50 is reported as 0.3979. `N#Cc1ccc(F)c(CCNC(=S)Nc2ccc(Br)cn2)c1F` was tested, and the pED50 was 1.886. For `COCc1ccc(F)c(CCNC(=S)Nc2ccc(Br)cn2)c1F`, the pED50 was 2.2218. With `Cn1cccc1CNC(=S)Nc1ccc(C#N)cn1` the pED50 was 0.959. Compound `CCOc1ccc(F)c(CCNC(=S)Nc2ccc(Br)cn2)c1F` has a pED50 of 2.2218. With `Cn1cccc1CNC(=S)Nc1ccc(Cl)cn1` the pED50 was 0.602. Compound `COc1ccc(F)c(CCNC(=S)Nc2ccc(Br)cn2)c1F` has a pED50 of 1.8239. For `Cc1ccc(NC(=S)NCCc2ccccc2)nc1`, the pED50 was 0.8239. Compound `Fc1ccccc1CCNC(=S)Nc1nccs1` has a pED50 of 1. Compound `CC(C)Oc1cccc(CCNC(=S)Nc2nccs2)c1` has a pED50 of 0.3979. `COc1cccc(F)c1CCNC(=S)Nc1nccs1` gave a pED50 of 0.5229. For `CCCCc1csc(NC(=S)NCCc2ccccc2)n1`, the Log10ED50 was 0.1139. Compound `Fc1cccc(F)c1CC/N=C(\S)Nc1ccc(Br)cn1` has a pED50 of 2. In the case of `CCOc1c(Cl)cc(F)c(CCNC(=S)Nc2ccc(Br)cn2)c1Cl`, the pED50 is reported as 1.886. `Fc1ccc(CCNC(=S)Nc2nccs2)cc1` gave a Log10ED50 of 0.5185. For `CCc1csc(NC(=S)NCCc2ccccc2)n1`, the pED50 was 0.1549. `CN(C)c1ccc(F)c(CCNC(=S)Nc2ccc(Br)cn2)c1F` was tested, and the pED50 was 1.7447 and 1.3979. `S=C(NCCc1ccccn1)Nc1nccs1` gave a Log10ED50 of 0.1139. Compound `Cc1csc(NC(=S)NCCc2ccccc2)n1` has a pED50 of 0.3979. `Cc1ccc(NC(=S)NCCc2c(F)cccc2F)nc1` gave a pED50 of 2. `COc1ccc(OC)c(CCNC(=S)Nc2nccs2)c1` showed a pED50 of 0.3979. Work on `N#Cc1csc(NC(=S)NCCc2c(F)cccc2F)n1` yielded a pED50 of 1.5229. In the case of `S=C(NCCc1cccnc1)Nc1nccs1`, the Log10ED50 is reported as 0.8062. In the case of `S=C(NCCc1ccccc1)Nc1ccccn1`, the pED50 is reported as 0.6989. `CCOc1cccc(F)c1CCNC(=S)Nc1ccc(C)cn1` showed a pED50 of 0.6989. With `CCCOc1cccc(CCNC(=S)Nc2nccs2)c1` the Log10ED50 was 0.3424. In the case of `COc1cccc(CCNC(=S)Nc2nccs2)c1`, the pED50 is reported as 0.2218. Compound `Fc1cccc(F)c1CCNC(=S)Nc1nccs1` has a pED50 of 1.6989. For `Cc1ccc(NC(=S)NCCc2ccccn2)nc1`, the pED50 was 0.5228. In the case of `COc1cccc(OC)c1CCNC(=S)Nc1nccs1`, the pED50 is reported as 1.0457. `CCCc1csc(NC(=S)NCCc2ccccc2)n1` was tested, and the Log10ED50 was 0.2041. `CCOc1ccc(F)c(CCNC(=S)Nc2ccc(Br)cn2)c1Cl` [THIOUREA, N-(5-BROMO-2-PYRIDINYL)-N'-(2-(2-CHLORO-3-ETHOXY-6-FLUOROPHENYL)ETHYL)-] gave a pED50 of 2.1549. For `CCOc1ccc(OCC)c(CCNC(=S)Nc2ccc(Br)cn2)c1`, the pED50 was 1.7447. In the case of `O=[N+]([O-])c1ccccc1CCNC(=S)Nc1nccs1`, the Log10ED50 is reported as 0.0414. With `COc1ccc(Br)cc1CCNC(=S)Nc1nccs1` the pED50 was 1.301. In the case of `S=C(NCCc1ccccc1Cl)Nc1nccs1`, the pED50 is reported as 0.3979. `S=C(NCCc1ccccc1)Nc1ncc(Cl)s1` gave a Log10ED50 of 0.4314. `Fc1cccc(Cl)c1CCNC(=S)Nc1nccs1` was tested, and the pED50 was 1.301. In the case of `S=C(NCCc1ccccc1)Nc1nccs1`, the Log10ED50 is reported as 0.1139. `S=C(NCCc1ccco1)Nc1nccs1` gave a Log10ED50 of 0.716. In the case of `CCOc1ccc(F)c(CCNC(=S)Nc2ccc(C#N)cn2)c1Cl`, the pED50 is reported as 2.5229. Work on `CCc1csc(NC(=S)NCCc2c(F)cccc2F)n1` yielded a pED50 of 1.0969. In the case of `CN(C)C(=O)c1ccc(F)c(CCNC(=S)Nc2ccc(Br)cn2)c1F`, the pED50 is reported as 1.0969. `CCOC(=O)c1csc(NC(=S)NCCc2ccccc2)n1` showed a pED50 of 0.301. Compound `FC(F)(F)c1csc(NC(=S)NCCc2ccccc2)n1` has a pED50 of 0.301. Work on `N#Cc1ccc(F)c(CC/N=C(\S)Nc2ccc(Cl)cn2)c1F` yielded a pED50 of 2.2218. Compound `Oc1ccccc1CCNC(=S)Nc1nccs1` has a Log10ED50 of 0.602. For `S=C(NCCc1ccccn1)Nc1ccc(Br)cn1` [TROVIRDINE], the pED50 was 1.6989. In the case of `S=C(NCCc1ccccc1)Nc1nncs1`, the Log10ED50 is reported as 0.7243. `COc1ccc(F)c(CCNC(=S)Nc2ccc(Cl)cn2)c1OC` gave a pED50 of 1.9208.

From ChEMBL document CHEMBL1140615, “Predicting anti-HIV activity of PETT derivatives: CoMFA approach” (2007)
